Results taken from article PMC7926264 (Clinical cancer research : an official journal of the …, 2020).

Legend:
[1] = system: MDA-MB-175vIII cells (DOC4-NRG1 fusion); assay: cells; assay type: cell-based; settings: Homo sapiens, 72 h, read-out: IC50 proliferation
Calu-3 cells (HER2 amp) = assay: cells; assay type: cell-based; settings: Homo sapiens, Calu-3, 72 h, read-out: IC50 proliferation
[2] = Mouse plasma protein binding; assay type: in vitro ADME
[3] = Afatinib plasma pharmacokinetics and human equivalent dose in nude mice; assay type: in vivo
[4] = cited from earlier work
[5] = Clinical plasma pharmacokinetics of afatinib; assay type: in vivo; settings: human, po, 40 mg
H2170 cells (HER2 amp) = assay: cells; assay type: cell-based; settings: Homo sapiens, NCI-H2170, 72 h, read-out: IC50 proliferation
[6] = system: H1781 cells (HER2 ex20ins); assay: cells; assay type: cell-based; settings: Homo sapiens, NCI-H1781, 72 h, read-out: IC50 proliferation
[7] = Human plasma protein binding; assay type: in vitro ADME
[8] = system: CUTO18 cells (EGFR exon 20 insertion p.S768_D770dupSVD); assay: cells; settings: Homo sapiens, 72 h, read-out: IC50 proliferation
[9] = system: CUTO14 cells (EGFR exon 20 insertion p.A767_V769dupASV); assay: cells; settings: Homo sapiens, CUTO14, 72 h, read-out: IC50 proliferation
[10] = system: EGFR phosphorylation (pEGFR) in CUTO14, CUTO17, and CUTO18
[11] = system: CUTO17 cells (EGFR exon 20 insertion p.N771_773dupNPH); assay: cells; settings: Homo sapiens, CUTO17, 72 h, read-out: IC50 proliferation
[12] = system: H661 cells (HER4 overexpression); assay: cells; assay type: cell-based; settings: Homo sapiens, NCI-H661, 72 h, read-out: IC50 proliferation

| Structure (SMILES) | IC50 [1] [nM] | IC50 (Calu-3 cells (HER2 amp)) [nM] | fraction unbound [2] | human equivalent dose (HED) in nude mice ([3]; extrapolation by linear regression to total AUC of 468 ng*hr/mL) [mg/kg] | plasma AUCtotal required in mice to replicate human AUCfree ([3]; mice) [ng·h/mL] | Cmax in patients at steady state ([4]; 40mg PO daily) [ng/mL] | plasma AUCtotal ([4]; human, 40 mg PO once daily) [ng·h/mL] | Cmax ([4]; read-out: Cmax in patients at steady state, 40mg PO daily) [nM] | AUC [5] [ng·h/mL] | IC50 (H2170 cells (HER2 amp)) [nM] | IC50 [6] [nM] | fraction unbound [7] | IC50 [8] [nM] | IC50 [9] [nM] | inhibition of EGFR phosphorylation (pEGFR) [10] | IC50 [11] [nM] | IC50 [12] [nM] |
| --- | --- | --- | --- | --- | --- | --- | --- | --- | --- | --- | --- | --- | --- | --- | --- | --- | --- |
| CN(C)C/C=C/C(=O)Nc1cc2c(Nc3ccc(F)c(Cl)c3)ncnc2cc1O[C@H]1CCOC1 [Afatinib] | 1.2 ± 3.1 | 31 ± 11.4 | 0.0577 | 6 | 468 | 38 | 324 | 78 | 27 | 11 ± 2.9 | 66 | 0.0821 |  |  |  |  |  |
| C=CC(=O)Nc1cc(Nc2nccc(-c3cn(C)c4ccccc34)n2)c(OC)cc1N(C)CCN(C)C [Osimertinib] |  | 188 ± 35.2 |  |  |  |  |  |  |  | 113 ± 4.4 | 406 |  | 647 ± 6.7 | 303 | showed inhibition at higher concentrations | 426 ± 21.5 | 4518 ± 2 |
